The results in this text go back to publication PMC13393665, “Structure-based virtual screening identifies potential endogenous ligands of the human bitter taste receptor TAS2R46” (The Journal of Biological Chemistry, 2026).

Holding throughout (experiment): Clytin II luminescence calcium assay, HEK293
Holding throughout (assay type): cell-based

Assay [1] concerns the target T1, TAS2R46 (hTAS2R46) (Homo sapiens, UniProt P59540).
T1 construct: full-length TAS2R46 with first 45 amino acids of SST3 fused at N-terminus; pEF-DEST51; transient in HEK293 with G-alpha16-gust44 and mitochondrial Clytin II
T1 sequence (P59540 1-309): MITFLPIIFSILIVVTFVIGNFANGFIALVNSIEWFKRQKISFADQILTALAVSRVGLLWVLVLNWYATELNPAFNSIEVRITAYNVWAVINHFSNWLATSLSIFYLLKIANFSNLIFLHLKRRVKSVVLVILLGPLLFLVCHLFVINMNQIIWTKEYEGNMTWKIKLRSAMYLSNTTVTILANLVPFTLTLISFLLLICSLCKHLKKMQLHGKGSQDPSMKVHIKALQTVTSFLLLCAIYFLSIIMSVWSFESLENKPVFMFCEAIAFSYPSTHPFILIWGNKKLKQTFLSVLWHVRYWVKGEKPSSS

Assay [2] deals with T1, TAS2R46 (hTAS2R46). The following applies: agonist; G-alpha16-gust44 co-expressed; HBSS, 10 mM HEPES pH 7.4.
Assay [3] has as its target T1, TAS2R46 (hTAS2R46). The following applies: agonist; G-alpha16-gust44 co-expressed; HBSS, 10 mM HEPES pH 7.4. The source holds these as a separate data set.

Where two headings read alike, the source gives them in different places.

For the compound `CC(=O)[C@@]1(O)CC[C@H]2[C@@H]3CCC4=CC(=O)CC[C@]4(C)[C@H]3CC[C@@]21C` [17-hydroxyprogesterone], in assay [1] (read-out: EC50), the EC50 came to 3.8 µM.

For the compound `C[C@]12CCC(=O)C=C1CC[C@@H]1[C@@H]2CC[C@]2(C)C(=O)CC[C@@H]12` [androstenedione], in assay [2], the threshold result is given as “All candidate compounds, except estrone, elicited concentration-dependent responses in TAS2R46-expressing HEK293 cells”.

Regarding `C[C@]12CCC(=O)C=C1CC[C@@H]1[C@@H]2CC[C@@]2(C)[C@H]1CC[C@]2(O)C(=O)CO` [cortexolone], the threshold entry in assay [2] was “cortisol and corticosterone showed lower potency than their metabolic intermediates, deoxycorticosterone and cortexolone, respectively”.

As for `C[C@]12C[C@H](O)[C@H]3[C@@H](CCC4=CC(=O)CC[C@@]43C)[C@@H]1CC[C@@H]2C(=O)CO` [corticosterone], the threshold result in assay [2] was “cortisol and corticosterone showed lower potency than their metabolic intermediates, deoxycorticosterone and cortexolone, respectively”.

With `C[C@]12CCC(=O)C=C1CC[C@@H]1[C@@H]2[C@@H](O)C[C@@]2(C)[C@H]1CC[C@]2(O)C(=O)CO` [cortisol], the threshold entry in assay [2] was “cortisol and corticosterone showed lower potency than their metabolic intermediates, deoxycorticosterone and cortexolone, respectively”.

Turning to `C[C@]12CC[C@H](O)CC1=CC[C@@H]1[C@@H]2CC[C@]2(C)C(=O)CC[C@@H]12` [dehydroepiandrosterone], in assay [1] (read-out: EC50), the EC50 is 14.9 µM.

For `C[C@]12CC[C@H]3[C@@H](CCC4=CC(=O)CC[C@@]43C)[C@@H]1CC[C@@H]2C(=O)CO` [deoxycorticosterone], the threshold entry in assay [2] was “cortisol and corticosterone showed lower potency than their metabolic intermediates, deoxycorticosterone and cortexolone, respectively”.

Take `C[C@]12CCC(=O)C[C@@H]1CC[C@@H]1[C@@H]2CC[C@]2(C)[C@@H](O)CC[C@@H]12` [dihydrotestosterone]: the threshold result in assay [2] was “All candidate compounds, except estrone, elicited concentration-dependent responses in TAS2R46-expressing HEK293 cells”.

As for `C[C@]12CC[C@@H]3c4ccc(O)cc4CC[C@H]3[C@@H]1CCC2=O` [estrone], the “Clytin II luminescence calcium assay, HEK293” value in assay [3] is on record as “All candidate compounds, except estrone, elicited concentration-dependent responses”.

With `CC(=O)[C@H]1CC[C@H]2[C@@H]3CCC4=CC(=O)CC[C@]4(C)[C@H]3CC[C@]12C` [progesterone], the EC50 in assay [1] (read-out: EC50) turned out to be 7.9 µM.

Regarding `C[C@]12CC[C@H]3[C@@H](CCC4=CC(=O)CC[C@@]43C)[C@@H]1CC[C@@H]2O` [testosterone], the EC50 in assay [1] was 11.7 µM.
